# Experimental data as given in patent US20250108036A1, “COMPOSITIONS FOR REMOVING SENESCENT CELLS AND USES THEREOF” (LIFECEUTIX CO., LTD., priority 2021, published 2025).
# Legend:
# p16, MMP3, IL6 = p16, MMP3, IL6 mRNA qRT-PCR in groin fat of obese mice given senescent cells killed by test compounds (Example 16, Table 72); type: in vivo, C57BL6J mice; details: obese mice administered senescent cells whose death was induced by the test compound
# From the text: To obtain preadipocytes, groin fat tissue was collected from an 8-week-old female C57BL6J mouse (purchased from KRIBB Laboratory Animal Resource Center). The fat tissue was cut into small pieces and treated with collagenase to decompose the fat tissue, then centrifuged to collect the stromal vascular fraction (SVF) containing preadipocytes. It was washed with a washing medium (HBSS, purchased from GenDEPOT; 3.5% Albumin Fraction V, purchased from GenDEPOT; 100 U/ml Penicillin & Streptomycin, purchased from Invitrogen), mixed again, and extracted by filtering through a 100 μm nylon mesh. The isolated preadipocytes were cultured in the designated medium (DMEM, purchased from GenDEPOT; 20% FBS, purchased from GenDEPOT; 100 U/ml Penicillin & Streptomycin, purchased from Invitrogen). In the same manner as Example 1, cells were treated with doxorubicin at a concentration of 250 nM for 24 hours and cultured for an additional 21 days to induce cell senescence. Cells were treated with doxorubicin at a concentration of 250 nM for 24 hours and cultured for an additional 21 days to induce cell senescence. By treating the test compounds in the same manner as in Example 13, it was confirmed using an optical microscope that the death of most senescent cells was induced. The killed preadipocytes were washed using PBS (purchased from Welgene) and then mixed with PBS at a concentration of 5×10^5 cells/200 μl. It was administered subcutaneously to 8-week-old female C57BL6J mice (purchased from KRIBB Laboratory Animal Resource Center). At 7 and 10 days after administration of the killed senescent cells, 2 million senescent preadipocytes were mixed in 200 μl of PBS and administered into the abdominal cavity of mice. After administration of killed senescent cells, obesity was induced in mice with a high-fat diet (DIO) for 8 weeks in the same manner as in Example 9-1. Afterwards, the mouse was sacrificed in the same manner as in Example 7-2, total RNA was extracted from the groin fat tissue, and qRT-PCR was performed and analyzed using the synthesized cDNA. […] The mRNA amount of p16, MMP3, and IL6 without administration of senescent cells whose death was induced by the test compounds was calculated as 100%, and the amount of p16, MMP3, and IL6 after administration of the senescent cells whose death was induced by the test compounds was compared with them. Furthermore, an open field test was performed to analyze aging-related frailty in mice using the same method as Example 7-7. […] The amount of activity evaluation without administration of senescent cells whose death was induced by the test compounds was calculated as 100% and compared it with the amount of activity evaluation after administration of senescent cells whose death was induced by the test compounds. […]
# [1] = system: foreskin cells in which senescence was induced by doxorubicin; test: CellTiter-Glo cell viability of doxorubicin-induced senescent foreskin cells (Examples 1-2, 10, 11, 13; Tables 4, 63, 65); type: cell-based, human; details: Homo sapiens, 72 h, doxorubicin-induced senescent foreskin cells, CellTiter-Glo, 0 μM = 100, read-out: Survival (%); for viability at 1.1 µM: 1.1 μM test compound; for viability at 10 µM: 10 μM test compound; for viability at 30 µM: 30 μM test compound; for viability at […]: […] test compound
# Protocol: After 3 days, cell viability was measured using CellTiter-Glo Luminescent Cell Viability Assay (Promega) or light microscopy.
# HMGN1 [2] = test: HMGN1 ELISA in culture medium of foreskin cells (Examples 10, 11; Tables 62, 63, 64); type: cell-based, human; details: Homo sapiens, 30 μM test compound, doxorubicin-treated foreskin cells, DMSO = 100; read-out: HMGN1
# HMGN1 [3] = test: HMGN1 ELISA in culture medium of A549 cancer cells (Example 12, Table 66); type: cell-based, human; details: Homo sapiens, A549, doxorubicin-induced senescent A549 cells, test compound 30 μM, ELISA, DMSO = 100; read-out: HMGN1 (amount of HMGN1 secreted in the cell culture)
# A549 = test: CellTiter-Glo cell viability of senescent A549 cancer cells (Example 12, Table 67); type: cell-based, human; details: Homo sapiens, A549, doxorubicin-induced senescent A549 cancer cells, CellTiter-Glo, read-out: Survival (%); for viability at 1.1 µM: 1.1 μM test compound; for viability at 10 µM: 10 μM test compound; for viability at 30 µM: 30 μM test compound
# [4] = open field test in obese mice given senescent cells killed by test compounds (Example 16, Table 72); type: in vivo, C57BL6J mice; details: obese mice administered senescent cells whose death was induced by the test compound
# From the text: To obtain preadipocytes, groin fat tissue was collected from an 8-week-old female C57BL6J mouse (purchased from KRIBB Laboratory Animal Resource Center). The fat tissue was cut into small pieces and treated with collagenase to decompose the fat tissue, then centrifuged to collect the stromal vascular fraction (SVF) containing preadipocytes. It was washed with a washing medium (HBSS, purchased from GenDEPOT; 3.5% Albumin Fraction V, purchased from GenDEPOT; 100 U/ml Penicillin & Streptomycin, purchased from Invitrogen), mixed again, and extracted by filtering through a 100 μm nylon mesh. The isolated preadipocytes were cultured in the designated medium (DMEM, purchased from GenDEPOT; 20% FBS, purchased from GenDEPOT; 100 U/ml Penicillin & Streptomycin, purchased from Invitrogen). In the same manner as Example 1, cells were treated with doxorubicin at a concentration of 250 nM for 24 hours and cultured for an additional 21 days to induce cell senescence. Cells were treated with doxorubicin at a concentration of 250 nM for 24 hours and cultured for an additional 21 days to induce cell senescence. By treating the test compounds in the same manner as in Example 13, it was confirmed using an optical microscope that the death of most senescent cells was induced. The killed preadipocytes were washed using PBS (purchased from Welgene) and then mixed with PBS at a concentration of 5×10^5 cells/200 μl. It was administered subcutaneously to 8-week-old female C57BL6J mice (purchased from KRIBB Laboratory Animal Resource Center). At 7 and 10 days after administration of the killed senescent cells, 2 million senescent preadipocytes were mixed in 200 μl of PBS and administered into the abdominal cavity of mice. After administration of killed senescent cells, obesity was induced in mice with a high-fat diet (DIO) for 8 weeks in the same manner as in Example 9-1. Afterwards, the mouse was sacrificed in the same manner as in Example 7-2, total RNA was extracted from the groin fat tissue, and qRT-PCR was performed and analyzed using the synthesized cDNA. […] The mRNA amount of p16, MMP3, and IL6 without administration of senescent cells whose death was induced by the test compounds was calculated as 100%, and the amount of p16, MMP3, and IL6 after administration of the senescent cells whose death was induced by the test compounds was compared with them. Furthermore, an open field test was performed to analyze aging-related frailty in mice using the same method as Example 7-7. […] The amount of activity evaluation without administration of senescent cells whose death was induced by the test compounds was calculated as 100% and compared it with the amount of activity evaluation after administration of senescent cells whose death was induced by the test compounds.
# [5] = system: foreskin cells in which aging was induced by doxorubicin; test: cell viability of senescent foreskin cells with caspase inhibitor QVD-Oph (Example 10, Table 61); type: cell-based, human; details: QVD-Oph 20 μM alone; doxorubicin-senescent foreskin cells
Structure (SMILES),"IL6 mRNA (%) (p16, MMP3, IL6)","MMP3 mRNA (%) (p16, MMP3, IL6)","p16 mRNA (%) (p16, MMP3, IL6)",viability at 1.1 µM [1] [%],viability at 10 µM [1] [%],viability at 30 µM [1] [%],viability at […] [1] [%],activity at 30 µM (HMGN1 [2]) [%],activity at 30 µM (HMGN1 [3]) [%],viability at 1.1 µM (A549) [%],viability at 10 µM (A549) [%],viability at 30 µM (A549) [%],Open Field Test Time in Center (%) [4],Survial (%) [5]
CCC(C)SSc1ncc[nH]1 (stereo not drawn) [LX-307],87.2 (±10.5) %,76.7 (±7.7) %,73.1 (±8.5) %,101,14.5,3.5,85.6,258,305,101,72.5,7.6,159 (±9.9) %,
C[C@H]1Cc2c([nH]c3ccccc23)[C@H](c2ccc(C(=O)N[C@]34CC5C[C@H](C[C@H](C5)C3)C4)cc2)N1C(=O)CCl [LX-411],71.9 (±7.2) %,92.7 (±8.1) %,79.7 (±6.6) %,0.2,,,,300,335,1.8,,,163 (±9) %,
COc1cc(OC)cc(O[C@H]2OC3O[C@@]4(C)CCC5[C@H](C)CCC([C@H]2C)[C@@]35OO4)c1 (stereo partly drawn) [LX-502],83.3 (±5.1) %,77.4 (±8)^ %,81.7 (±7.8) %,59.1,,,10.4,274,321,78.4,,,126 (±20.4) %,
"COCC1(CO)C(=O)C2CCN1CC2 (stereo not drawn) [LX-701, Eprenetapopt, reference compound]",68.2 (±14.3) %,72.5 (±9.2) %,81.9 (±6.8) %,99.3,45.9,27.4,100,277,297,99.2,91,11.3,181.8 (±27.1) %,
CCOc1ccccc1-n1c(CN2CCNCC2)nc2ccccc2c1=O [LX-1002],74.4 (±8.5) %,68.1 (±13.8) %,77.4 (±8.6) %,4.2,,,,286,296,47.6,,,141.1 (±18.3) %,
"Fc1ccc(-n2cc(CCCCN3CCC4(CC3)OCc3ccccc34)c3ccccc32)cc1 [LX-1102, Siramesine, reference compound]",76.2 (±7.1) %,95.4 (±9.6) %,82.9 (±4.8) %,94,3.1,,13.9,271,324,99.5,17.7,,146.2 (±17.1) %,
"CCc1ccc(C(=O)C(C)CN2CCCCC2)cc1 (stereo not drawn) [LX-1401, Eperisone, reference compound]",72.8 (±10.4) %,75.1 (±9.4) %,83.4 (±6.9) %,96.4,10.2,9,88.1,296,287,99,49.9,22.8,166.7 (±14.8) %,
"C[C@@H]1CC[C@@]23C[C@H](O)C(=O)[C@@]2(O)[C@]1(C)[C@H](OC(=O)CCl)C[C@@H](C1=CCn2c(=O)n(-c4ccccc4)c(=O)n2C1)[C@@H]3C [LX-1801, (2S,3aS,4S,5R,7R,8S,8aS,11R)-7-(1,3-Dioxo-2-phenyl-2,3,5,8-tetrahydro-1H-[1,2,4]triazolo[1,2-a]pyridazin-6-yl)-2,3a-dihydroxy-4,8,11-trimethyl-3-oxooctahydro-1H-4,8a-propanoazulen-5-yl 2-Chloroacetate]",56.4 (±12.4) %,67.8 (±13.1) %,62.5 (±9.4) %,8.7,,,,291,295,60.6,25.1,,173.4 (±18.6) %,
"CC1(C)CC[C@]2(NC(=O)C(C)(F)F)CC[C@]3(C)[C@H](C(=O)C=C4[C@@]5(C)C=C(C#N)C(=O)C(C)(C)[C@@H]5CC[C@]43C)[C@@H]2C1 [LX-2101, Omaveloxolone, reference compound]",75.9 (±6.7) %,68.3 (±16.4) %,73.8 (±9.7) %,1.8,,,,274,297,71.6,,,144.9 (±26.6) %,
CC(C)[C@H](NC(=O)c1ccc2ccccc2n1)C(=O)N[C@@H](CC(=O)O)C(=O)COc1c(F)cccc1F [QVD],,,,,,,,,,,,,,105.1 (±4.7) %
